Measured values reported in paper PMC11672637, “7-O-Carboxylic Acid-Substituted 3-O-Alkyl Difluoroquercetin; An Aztreonam-Potentiating Agent Against Carbapenemase-Producing Pseudomonas aeruginosa Through Simultaneous Inhibition of Metallo-β-Lactamase and Efflux Pump” (Antibiotics, 2024).

How the values were obtained:
[1] = tested on: efflux pump activity in P. aeruginosa (PA-017, blaNDM); assay: EtBr accumulation, inhibition of efflux pump activity; type: cell-based; details: EtBr fluorescence compared with positive control CCCP
Protocol: The NDM-producing P. aeruginosa clinical isolate (PA-017, blaNDM) (5 mL, LB medium) was grown to reach the mid-log phase. After centrifugation at 3500 rpm for 15 min, the bacterial pellet was washed twice with PBS and resuspended to OD600 = 0.3 in PBS. To each well of a flat-bottomed black 96-well plate, 182 µL of the bacterial suspension, 4 µL of glucose [final concentration = 0.4% (w/v)], 4 µL of the synthesized compounds or positive control CCCP, and 10 µL of EtBr (final concentration = 1 µg/mL) were added. The plate was incubated at 37 °C, and fluorescence emission from EtBr (λex 480 nm/λem 630 nm) was recorded every 2 min (for 60 min) using a Cytation 5 imaging multi-mode reader (BioTek Instruments, Inc., Winooski, VT, USA).

[2] = tested on: NDM-1-Producing P. aeruginosa (PA-017, blaNDM); assay: MIC / checkerboard with ATM; type: cell-based; parameters: key to Susceptibility category: S: susceptible; I: intermediate; R: resistant; details: PA-017; for MIC: Pseudomonas aeruginosa, compound alone, read-out: MIC, Cmpd
KPC-2 = target: T1, KPC-2 (Klebsiella pneumoniae, UniProt Q9F663); assay: β-lactamase inhibition assay (nitrocefin); type: biochemical; details: nitrocefin substrate; read-out: BLi, IC50 KPC-2
T1 construct: purchased LifeSpan Biosciences, Inc. LS-G26598
Protocol: (§1) Recombinant AmpC, OXA-48 (residues 23–265) and VIM-2 (residues 27–266) were prepared from Escherichia coli based on previously established protocols. KPC-2 and NDM-1 are commercially available from LifeSpan Biosciences, Inc., Seattle, WA, USA (LS-G26598) and RayBiotech, Inc., Peachtree Corners, GA, USA (230-00554), respectively. For β-lactamase inhibition assay, in a 96-well plate, 70–0.1 μM (in PBS) of the synthesized compounds (1~14) (100 μL) were mixed with diluted β-lactamase stock (2% DMSO in 200 μL). In a separate 96-well plate, a substrate of AmpC, KPC-2, OXA-48, and VIM-2 (nitrocefin) and NDM-1 (imipenem) were added into each well (final concentrations of 70 μM for nitrocefin and 100 μM for imipenem). After incubation at 37 °C for 20 min, the mixture of the synthesized compounds (1~14) and β-lactamase in one plate was added to the substrate in the other plate. Enzymatic hydrolysis of the substrate was then monitored by a Cytation 5 imaging multimode reader (BioTek Instruments Inc., Winooski, VT, USA) at 486 nm and 300 nm for nitrocefin and imipenem, respectively, for 15 min. The rates of hydrolysis in the presence of the inhibitors were determined when the reaction rate plateaued. Comparison of the enzymatic hydrolysis rates in the presence and the absence of inhibitors (100%) provided the percentage of enzyme inhibition at each concentration of the synthesized compounds. The IC50 values were obtained after non-linear regression (sigmoidal dose-responses) by GraphPad Prism 5 (GraphPad Software, Boston, MA, USA).

VIM-2 = target: T2, VIM-2 (Escherichia coli, UniProt Q5U7L7); assay: β-lactamase inhibition assay (nitrocefin); type: biochemical; details: nitrocefin substrate; read-out: BLi, IC50 VIM-2
T2 construct: VIM-2 (residues 27–266); made in house; host or cells: Escherichia coli
Protocol: as §1

OXA-48 = target: T3, OXA-48 (Klebsiella pneumoniae, UniProt Q6XEC0); assay: β-lactamase inhibition assay (nitrocefin); type: biochemical; details: nitrocefin substrate; read-out: BLi, IC50 OXA-48
T3 construct: OXA-48 (residues 23–265); made in house; host or cells: Escherichia coli
Protocol: as §1

AmpC = assay: β-lactamase inhibition assay (nitrocefin); type: biochemical; details: nitrocefin substrate; read-out: BLi, IC50 AmpC
Protocol: as §1

NDM-1 = target: T4, NDM-1 (Klebsiella pneumoniae, UniProt C7C422); assay: β-lactamase inhibition assay (imipenem); type: biochemical; details: imipenem substrate; read-out: BLi, IC50 NDM-1
T4 construct: purchased RayBiotech, Inc. 230-00554
Protocol: as §1

PA-026, blaNDM = assay: MIC / checkerboard with ATM; type: cell-based, P. aeruginosa; parameters: key to Susceptibility category: S: susceptible; I: intermediate; R: resistant; details: PA-026, Table S2
PA-038, blaNDM = assay: MIC / checkerboard with ATM; type: cell-based, P. aeruginosa; parameters: key to Susceptibility category: S: susceptible; I: intermediate; R: resistant; details: PA-038; Table S2
PA-002, blaIMP = assay: MIC / checkerboard with ATM; type: cell-based, P. aeruginosa; parameters: key to Susceptibility category: S: susceptible; I: intermediate; R: resistant; details: PA-002, Table S2
PA-021, blaIMP = assay: MIC / checkerboard with ATM; type: cell-based, P. aeruginosa; parameters: key to Susceptibility category: S: susceptible; I: intermediate; R: resistant; details: PA-021; Table S2
PA-035, blaGES = assay: MIC / checkerboard with ATM; type: cell-based, P. aeruginosa; parameters: key to Susceptibility category: S: susceptible; I: intermediate; R: resistant; details: PA-035, Table S2
PA-044, blaNDM = assay: MIC / checkerboard with ATM; type: cell-based, P. aeruginosa; parameters: key to Susceptibility category: S: susceptible; I: intermediate; R: resistant; details: PA-044; Table S2
PA-003, blaVIM = assay: MIC / checkerboard with ATM; type: cell-based, P. aeruginosa; parameters: key to Susceptibility category: S: susceptible; I: intermediate; R: resistant; details: PA-003, Table S2
PA-031, blaNDM = assay: MIC / checkerboard with ATM; type: cell-based, P. aeruginosa; parameters: key to Susceptibility category: S: susceptible; I: intermediate; R: resistant; details: PA-031; Table S2
PA-016, blaIMP = assay: MIC / checkerboard with ATM; type: cell-based, P. aeruginosa; parameters: key to Susceptibility category: S: susceptible; I: intermediate; R: resistant; details: PA-016; Table S2
PA-040, blaNDM = assay: MIC / checkerboard with ATM; type: cell-based, P. aeruginosa; parameters: key to Susceptibility category: S: susceptible; I: intermediate; R: resistant; details: PA-040; Table S2
PA-028, blaNDM = assay: MIC / checkerboard with ATM; type: cell-based, P. aeruginosa; parameters: key to Susceptibility category: S: susceptible; I: intermediate; R: resistant; details: PA-028; Table S2
PA-037, blaIMP/NDM = assay: MIC / checkerboard with ATM; type: cell-based, P. aeruginosa; parameters: key to Susceptibility category: S: susceptible; I: intermediate; R: resistant; details: PA-037; Table S2
PA-039, blaNDM = assay: MIC / checkerboard with ATM; type: cell-based, P. aeruginosa; parameters: key to Susceptibility category: S: susceptible; I: intermediate; R: resistant; details: PA-039; Table S2
PA-030, blaIMP = assay: MIC / checkerboard with ATM; type: cell-based, P. aeruginosa; parameters: key to Susceptibility category: S: susceptible; I: intermediate; R: resistant; details: PA-030; Table S2
PA-032, blaIMP = assay: MIC / checkerboard with ATM; type: cell-based, P. aeruginosa; parameters: key to Susceptibility category: S: susceptible; I: intermediate; R: resistant; details: PA-032, Table S2
PA-034, blaNDM = assay: MIC / checkerboard with ATM; type: cell-based, P. aeruginosa; parameters: key to Susceptibility category: S: susceptible; I: intermediate; R: resistant; details: PA-034; Table S2
PA-009, blaGES = assay: MIC / checkerboard with ATM; type: cell-based, P. aeruginosa; parameters: key to Susceptibility category: S: susceptible; I: intermediate; R: resistant; details: PA-009; Table S2
PA-036, blaNDM = assay: MIC / checkerboard with ATM; type: cell-based, P. aeruginosa; parameters: key to Susceptibility category: S: susceptible; I: intermediate; R: resistant; details: PA-036; Table S2
PA-033, blaNDM = assay: MIC / checkerboard with ATM; type: cell-based, P. aeruginosa; parameters: key to Susceptibility category: S: susceptible; I: intermediate; R: resistant; details: PA-033; Table S2
PA-027, blaIMP = assay: MIC / checkerboard with ATM; type: cell-based, P. aeruginosa; parameters: key to Susceptibility category: S: susceptible; I: intermediate; R: resistant; details: PA-027; Table S2
PA-042, blaIMP/NDM = assay: MIC / checkerboard with ATM; type: cell-based, P. aeruginosa; parameters: key to Susceptibility category: S: susceptible; I: intermediate; R: resistant; details: PA-042; Table S2
PA-014, blaGES = assay: MIC / checkerboard with ATM; type: cell-based, P. aeruginosa; parameters: key to Susceptibility category: S: susceptible; I: intermediate; R: resistant; details: PA-014; Table S2
PA-029, blaIMP = assay: MIC / checkerboard with ATM; type: cell-based, P. aeruginosa; parameters: key to Susceptibility category: S: susceptible; I: intermediate; R: resistant; details: PA-029; Table S2
PA-025, blaNDM = assay: MIC / checkerboard with ATM; type: cell-based, P. aeruginosa; parameters: key to Susceptibility category: S: susceptible; I: intermediate; R: resistant; details: PA-025; Table S2
PA-041, blaNDM = assay: MIC / checkerboard with ATM; type: cell-based, P. aeruginosa; parameters: key to Susceptibility category: S: susceptible; I: intermediate; R: resistant; details: PA-041; Table S2
[3] = Pseudomonas aeruginosa, read-out: MIC value

T4 sequence (C7C422 29-270, looked up, species assumed): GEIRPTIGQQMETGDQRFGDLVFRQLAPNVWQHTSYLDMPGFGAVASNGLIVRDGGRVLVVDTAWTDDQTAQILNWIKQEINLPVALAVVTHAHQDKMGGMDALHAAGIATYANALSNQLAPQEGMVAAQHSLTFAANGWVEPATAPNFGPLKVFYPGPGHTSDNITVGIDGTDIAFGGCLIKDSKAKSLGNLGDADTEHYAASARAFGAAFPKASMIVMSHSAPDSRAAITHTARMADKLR
T1 sequence (Q9F663 25-293, looked up, species assumed): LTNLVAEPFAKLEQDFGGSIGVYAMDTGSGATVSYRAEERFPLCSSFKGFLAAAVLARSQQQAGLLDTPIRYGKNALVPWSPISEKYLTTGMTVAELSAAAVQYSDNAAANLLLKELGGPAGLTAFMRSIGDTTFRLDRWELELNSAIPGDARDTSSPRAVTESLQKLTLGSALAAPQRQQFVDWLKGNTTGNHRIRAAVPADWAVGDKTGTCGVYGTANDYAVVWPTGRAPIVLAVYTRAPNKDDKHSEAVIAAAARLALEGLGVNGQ
T3 sequence (Q6XEC0 23-265 limits assumed): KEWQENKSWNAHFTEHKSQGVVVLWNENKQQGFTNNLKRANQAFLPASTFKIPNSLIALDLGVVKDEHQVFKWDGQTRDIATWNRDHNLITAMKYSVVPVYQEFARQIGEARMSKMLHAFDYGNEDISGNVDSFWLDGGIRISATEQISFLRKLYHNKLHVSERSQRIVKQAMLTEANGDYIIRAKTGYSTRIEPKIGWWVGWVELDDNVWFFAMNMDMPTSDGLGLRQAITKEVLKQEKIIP

`CC(C)(C)CCOc1c(-c2ccc(F)c(F)c2)oc2cc(OCC(=O)N3CCCCC3)cc(O)c2c1=O` [Compound 10, 2-(3,4-Difluorophenyl)-3-(3,3-dimethylbutoxy)-5-hydroxy-7-(2-oxo-2-(piperidin-1-yl)ethoxy)-4H-chromen-4-one] was tested, and the “EPi (inhibition of efflux pump activity)” value [1] was “- ^f”, the “FD (fold decrease in the MIC of ATM upon combination with the compound)” value [2] was 1 and the MIC [2] was greater than 256 µg/mL. It also gave an IC50 (KPC-2) greater than 50 µM, an IC50 (VIM-2) greater than 100 µM and an IC50 (OXA-48) greater than 50 µM. It also gave an IC50 (AmpC) greater than 50 µM and an IC50 (NDM-1) greater than 50 µM.

`O=c1c(OCCC2CCCC2)c(-c2ccc(F)c(F)c2)oc2cc(O)cc(O)c12` [Compound 2] was tested, and the “EPi (inhibition of efflux pump activity)” value [1] was “↑↑↑ ^e”, the “FD (fold decrease in the MIC of ATM upon combination with the compound)” value [2] was 2 and the MIC [2] was greater than 256 µg/mL. The IC50 (AmpC) was 21 ± 2.1 µM.

With `C[N+](C)(CCNC(=O)COc1cc(O)c2c(=O)c(OCCC3CCCCC3)c(-c3ccc(F)c(F)c3)oc2c1)CC(=O)[O-]` [Compound 8, 2-((2-(2-((3-(2-Cyclohexylethoxy)-2-(3,4-difluorophenyl)-5-hydroxy-4-oxo-4H-chromen-7-yl)oxy)acetamido)ethyl)dimethylammonio)acetate] the “EPi (inhibition of efflux pump activity)” value [1] was “- ^f”, the “FD (fold decrease in the MIC of ATM upon combination with the compound)” value [2] was 2 and the MIC [2] was greater than 256 µg/mL. The IC50 (KPC-2) was greater than 50 µM, the IC50 (VIM-2) was greater than 100 µM and the IC50 (OXA-48) was greater than 100 µM. For the same molecule, the IC50 (AmpC) was greater than 50 µM and the IC50 (NDM-1) was greater than 50 µM.

For `CN1CCN(CCOc2cc(O)c3c(=O)c(OCCC4CCCC4)c(-c4ccc(F)c(F)c4)oc3c2)CC1` [Compound 14, 3-(2-Cyclopentylethoxy)-2-(3,4-difluorophenyl)-5-hydroxy-7-(2-(4-methylpiperazin-1-yl)ethoxy)-4H-chromen-4-one], the “EPi (inhibition of efflux pump activity)” value [1] was “- ^f”, the “FD (fold decrease in the MIC of ATM upon combination with the compound)” value [2] was 2 and the MIC [2] was greater than 256 µg/mL. For the same molecule, the IC50 (KPC-2) was greater than 50 µM, the IC50 (VIM-2) was greater than 100 µM and the IC50 (OXA-48) was greater than 100 µM. For the same molecule, the IC50 (AmpC) was greater than 50 µM and the IC50 (NDM-1) was greater than 50 µM.

In the case of `O=c1c(OCCC2CCCCC2)c(-c2ccc(F)c(F)c2)oc2cc(O)cc(O)c12` [Compound 3], the “EPi (inhibition of efflux pump activity)” value [1] is reported as “↑↑↑ ^e”, the “FD (fold decrease in the MIC of ATM upon combination with the compound)” value [2] is reported as 4 and the MIC [2] is reported as greater than 256 µg/mL. For the same molecule, the IC50 (AmpC) was 15.3 ± 1.5 µM.

`C[C@@H](O)[C@H]1C(=O)N2C(C(=O)O)=C(S[C@@H]3CN[C@H](C(=O)N(C)C)C3)[C@H](C)[C@H]12` [MEM, meropenem, reference compound] was tested, and the Susceptibility category (PA-026, blaNDM) was “S”, the MIC (PA-026, blaNDM; [3]) was no more than 0.25 µg/mL and the Susceptibility category (PA-038, blaNDM) was “R”. The Susceptibility category (PA-002, blaIMP) was “R”, the MIC (PA-002, blaIMP; [3]) was greater than 32 µg/mL and the Susceptibility category (PA-021, blaIMP) was “R”. For the same molecule, the Susceptibility category (PA-035, blaGES) was “R”, the MIC (PA-035, blaGES; [3]) was 16 µg/mL and the Susceptibility category (PA-044, blaNDM) was “R”. The Susceptibility category (PA-003, blaVIM) was “R”, the MIC (PA-003, blaVIM; [3]) was 16 µg/mL and the Susceptibility category ([2]; Table S2) was “R”. The Susceptibility category (PA-031, blaNDM) was “R”, the Susceptibility category (PA-016, blaIMP) was “R” and the Susceptibility category (PA-040, blaNDM) was “R”. For the same molecule, the Susceptibility category (PA-028, blaNDM) was “R”, the Susceptibility category (PA-037, blaIMP/NDM) was “R” and the Susceptibility category (PA-039, blaNDM) was “R”. The Susceptibility category (PA-030, blaIMP) was “R”, the Susceptibility category (PA-032, blaIMP) was “R” and the MIC (PA-032, blaIMP; [3]) was 32 µg/mL. For the same molecule, the Susceptibility category (PA-034, blaNDM) was “R”, the Susceptibility category (PA-009, blaGES) was “R” and the Susceptibility category (PA-036, blaNDM) was “R”. For the same molecule, the Susceptibility category (PA-033, blaNDM) was “R”, the Susceptibility category (PA-027, blaIMP) was “R” and the Susceptibility category (PA-042, blaIMP/NDM) was “R”. The Susceptibility category (PA-014, blaGES) was “R”, the Susceptibility category (PA-029, blaIMP) was “R” and the Susceptibility category (PA-025, blaNDM) was “R”. For the same molecule, the Susceptibility category (PA-041, blaNDM) was “R”.
